# According to patent publication US7906556B2, “Methods of treating amyloidosis using cyclopropyl derivative aspartyl protease inhibitors” (Elan Pharmaceuticals, Inc., priority 2005, dated 2011):
# Values joined by “and” are separate entries in the source; they are usually repeats but may differ in a detail not shown here. Equal values may be shown once.
# Test system: not listed separately
# Experiment: Brain to plasma ratio (AUC 0-6 h) in female FVB mice
# Format: in vivo
# Details: 100 mpk dose
row,Structure (SMILES),Brain AUC (0-6 h)
1,"CC(=O)NC(Cc1cc(F)cc(F)c1)C(O)CNC1(CCCC(C)(C)C)CC1 (stereo not drawn) [Example 3.5, N-(1-(3,5-difluorophenyl)-4-(1-(4,4-dimethylpentyl)cyclopropylamino)-3-hydroxybutan-2-yl)acetamide]",28 µM·h

# Same assay, conditions: mouse, brain and plasma, 100 mg/kg, 100 mpk dose, AUC (0-6 h)
row,Structure (SMILES),Kp
1,"CC(=O)NC(Cc1cc(F)cc(F)c1)C(O)CNC1(CCCC(C)(C)C)CC1 (stereo not drawn) [Example 3.5, N-(1-(3,5-difluorophenyl)-4-(1-(4,4-dimethylpentyl)cyclopropylamino)-3-hydroxybutan-2-yl)acetamide]",2.1

# Same assay, conditions: mouse, plasma, 100 mg/kg, 100 mpk dose
row,Structure (SMILES),AUC(0-t)
1,"CC(=O)NC(Cc1cc(F)cc(F)c1)C(O)CNC1(CCCC(C)(C)C)CC1 (stereo not drawn) [Example 3.5, N-(1-(3,5-difluorophenyl)-4-(1-(4,4-dimethylpentyl)cyclopropylamino)-3-hydroxybutan-2-yl)acetamide]",13 µM·h

# Test system: Madin-Darby Canine Kidney (MDCK) cells
# Experiment: In vitro permeability across a monolayer of MDCK cells in a transwell device
# Format: in vitro ADME
# Details: test compound 5 μM, 2 h at 37° C., apical to basolateral
# Procedure: (§1) Compounds were evaluated for permeability across a monolayer of Madin-Darby Canine Kidney (MDCK) cells in a transwell device following culturing for 4 days. Cells were grown in Dulbecco's Modified Eagle Media with Glutamax (Invitrogen Cat #10569-010) with 10% Heat Inactivated Fetal Bovine Serum (media kitchen) and Penicillin/streptomycin 40 units/mL (media kitchen) at 37° C. and 5% CO2, and were plated into 12 mm diameter transwell plates (12 wells/plate, Costar Cat#3401). A 0.5 mL of cell suspension (400,000 cells/mL) was placed on membrane and a 1.5 mL media in the bottom wells on day 1. On day 2 and day 3, cells were fed with new media. On day 4, the lower chambers were filled with modified Hank's Balanced Salt Solution (mHBSS, media kitchen) with or without 5 μM Cyclosporin A (CspA, Sigma Cat#C-3662). Media was removed from upper chambers and filled with mHBSS with or without CspA, and incubated 30 min at 37° C. with light shaking. Donor chambers were emptied, and filled with test compound at 5 μM in mHBSS. Lucifer Yellow (100 μM, LY, Sigma Cat#L-0144) was added to all of the upper chambers to test for monolayer integrity (tight junctions). Plates were incubated for 2 h at 37° C. with shaking. After 2 h, both the donor and receiver wells were sampled. The bottom chambers were read in a fluorometer to assess LY leakage, and then the media from all wells were assayed by LC/MS/MS to determine compound levels.
row,Structure (SMILES),Permeability Forward A > B
1,"CC(=O)NC(Cc1cc(F)cc(F)c1)C(O)CNC1(C(=O)NCCC(C)(C)C)CC1 (stereo not drawn) [Example 3.4, 1-(3-acetamido-4-(3,5-difluorophenyl)-2-hydroxybutylamino)-N-(3,3-dimethylbutyl)cyclopropanecarboxamide]",4.56 ×10⁻⁶ cm/s
2,"CC(=O)NC(Cc1cc(F)cc(F)c1)C(O)CNC1(CCOCC(C)(C)C)CC1C (single isomer, unassigned) [Example 3.8, N-(4-(2-methyl-1-(2-(neopentyloxy)ethyl)cyclopropylamino)-1-(3,5-difluorophenyl)-3-hydroxybutan-2-yl)acetamide]",11.84 ×10⁻⁶ cm/s

# Test system: not listed separately
# Experiment: as above
# Format: in vitro ADME, Canine
# Details: dog, MDCK, test compound 5 μM, 2 h at 37° C., apical to basolateral, read-out: Permeability Forward A > B
# Procedure: as §1
row,Structure (SMILES),"Papp A→B at 2 h, 5 μM"
1,"CC(=O)NC(Cc1cc(F)cc(F)c1)C(O)CNC1(C(=O)NCCC(C)(C)C)CC1 (stereo not drawn) [Example 3.4, 1-(3-acetamido-4-(3,5-difluorophenyl)-2-hydroxybutylamino)-N-(3,3-dimethylbutyl)cyclopropanecarboxamide]",3.33 ×10⁻⁶ cm/s
2,"CC(=O)NC(Cc1cc(F)cc(F)c1)C(O)CNC1(COCCC(C)(C)C)C2CCCC21 (stereo not drawn) [Example 3.9, N-(1-(3,5-difluorophenyl)-4-(6-((3,3-dimethylbutoxy)methyl)bicyclo[3.1.0]hexan-6-ylamino)-3-hydroxybutan-2-yl)acetamide]",4.73 ×10⁻⁶ cm/s
3,"CC(=O)NC(Cc1cc(F)cc(F)c1)C(O)CNC1(Cc2cn(CC(C)(C)C)nn2)CC1 (stereo not drawn) [Example 3.6, N-(1-(3,5-difluorophenyl)-3-hydroxy-4-(1-((1-neopentyl-1H-1,2,3-triazol-4-yl)methyl)cyclopropylamino)butan-2-yl)acetamide]",4.31 ×10⁻⁶ cm/s
4,"CC(=O)NC(Cc1cc(F)cc(F)c1)C(O)CNC1(CSCC(C)(C)C)CC1 (stereo not drawn) [Example 3.3, N-(4-(1-((neopentylthio)methyl)cyclopropylamino)-1-(3,5-difluorophenyl)-3-hydroxybutan-2-yl)acetamide]",10.1 ×10⁻⁶ cm/s
5,"CC(=O)NC(Cc1cc(F)cc(F)c1)C(O)CNC1(CCCC(C)C)CC1 (stereo not drawn) [Example 3.2, N-(1-(3,5-difluorophenyl)-3-hydroxy-4-(1-(4-methylpentyl)cyclopropylamino)butan-2-yl)acetamide]",4.33 ×10⁻⁶ cm/s
6,"CC(=O)NC(Cc1cc(F)cc(F)c1)C(O)CNC1(CCOCC(C)(C)C)CC1C (single isomer, unassigned) [Example 3.7, N-(4-(2-methyl-1-(2-(neopentyloxy)ethyl)cyclopropylamino)-1-(3,5-difluorophenyl)-3-hydroxybutan-2-yl)acetamide]",8.18 ×10⁻⁶ cm/s

# Next, values leading:
row,"Papp A→B at 2 h, 5 μM",Structure (SMILES)
1,3.47 ×10⁻⁶ cm/s,"CC(=O)NC(Cc1cc(F)cc(F)c1)C(O)CNC1(CCCCn2cccn2)CC1 (stereo not drawn) [Example 3.14, N-(4-(1-(4-(1H-pyrazol-1-yl)butyl)cyclopropylamino)-1-(3,5-difluorophenyl)-3-hydroxybutan-2-yl)acetamide]"
2,19.1 ×10⁻⁶ cm/s,"CC(=O)NC(Cc1cc(F)cc(F)c1)C(O)CNC1(Cc2c(F)cccc2F)CC1 (stereo not drawn) [Example 3.19, N-(4-(1-(2,6-difluorobenzyl)cyclopropylamino)-1-(3,5-difluorophenyl)-3-hydroxybutan-2-yl)acetamide]"
3,21.2 ×10⁻⁶ cm/s,"CC(=O)NC(Cc1cc(F)cc(F)c1)C(O)CNC1(Cc2ccccc2F)CC1 (stereo not drawn) [Example 3.20, N-(1-(3,5-difluorophenyl)-4-(1-(2-fluorobenzyl)cyclopropylamino)-3-hydroxybutan-2-yl)acetamide]"
4,3.31 ×10⁻⁶ cm/s,"CC(=O)NC(Cc1cc(F)cc(F)c1)C(O)CNC1(CCCCC(C)(C)C)CC1 (stereo not drawn) [Example 3.11, N-(1-(3,5-difluorophenyl)-4-(1-(5,5-dimethylhexyl)cyclopropylamino)-3-hydroxybutan-2-yl)acetamide]"
5,4.56 ×10⁻⁶ cm/s,"CC(=O)NC(Cc1cc(F)cc(F)c1)C(O)CNC1(C(=O)N(C)c2ccccc2)CC1 (stereo not drawn) [Example 3.18, 1-(3-acetamido-4-(3,5-difluorophenyl)-2-hydroxybutylamino)-N-methyl-N-phenylcyclopropanecarboxamide]"
6,9.74 ×10⁻⁶ cm/s,"CC(=O)NC(Cc1cc(F)cc(F)c1)C(O)CNC1(CCOCC(C)(C)C)CC1 (stereo not drawn) [Example 3.15, N-(4-(1-(2-(neopentyloxy)ethyl)cyclopropylamino)-1-(3,5-difluorophenyl)-3-hydroxybutan-2-yl)acetamide]"
7,4.28 ×10⁻⁶ cm/s,"CC(=O)NC(Cc1cc(F)cc(F)c1)C(O)CNC1(C/C=C/CC(C)(C)C)CC1 (stereo not drawn) [Example 3.12, N-(1-(3,5-difluorophenyl)-4-(1-(5,5-dimethylhex-2-enyl)cyclopropylamino)-3-hydroxybutan-2-yl)acetamide]"
8,6.15 ×10⁻⁶ cm/s,"CC(=O)NC(Cc1cc(F)cc(F)c1)C(O)CNC1(C(=O)NCC(C)(C)C)CC1 (stereo not drawn) [Example 3.16, 1-(3-acetamido-4-(3,5-difluorophenyl)-2-hydroxybutylamino)-N-neopentylcyclopropanecarboxamide]"
9,4.39 ×10⁻⁶ cm/s,"CC(=O)NC(Cc1cc(F)cc(F)c1)C(O)CNC1(CCCn2cccn2)CC1 (stereo not drawn) [Example 3.13, N-(4-(1-(3-(1H-pyrazol-1-yl)propyl)cyclopropylamino)-1-(3,5-difluorophenyl)-3-hydroxybutan-2-yl)acetamide]"
10,9.32 ×10⁻⁶ cm/s,"CC(=O)NC(Cc1cc(F)cc(F)c1)C(O)CNC1(Cc2cc(C(C)(C)C)on2)CC1 (stereo not drawn) [Example 3.10, N-(4-(1-((5-tert-butylisoxazol-3-yl)methyl)cyclopropylamino)-1-(3,5-difluorophenyl)-3-hydroxybutan-2-yl)acetamide]"

# Test system: beta-secretase versus catD
# Experiment: Selectivity of compounds for inhibiting BACE over catD (ratio of IC50 values)
# Format: biochemical
# Details: each value is an average of four experimental runs; multiple values = more than one experiment
# Procedure: Investigation of potential beta-secretase inhibitors produced compounds with increased selectivity for beta-secretase over other aspartyl proteases such as cathepsin D (catD), cathepsin E (catE), Human Immunodeficiency Viral (HIV) protease, and renin. Selectivity was calculated as a ratio of inhibition (IC50) values in which the inhibition of beta-secretase was compared to the inhibition of other aspartyl proteases.
# The compounds of formula (I) can be selective for beta-secretase versus catD.
# In the following examples, each value is an average of four experimental runs and multiple values for one compound indicate that more than one experiment was conducted.
row,Structure (SMILES),Selectivity IC50 catD/IC50 BACE
1,"CC(=O)NC(Cc1cc(F)cc(F)c1)C(O)CNC1(CCCC(C)C)CC1 (stereo not drawn) [Example 3.2, N-(1-(3,5-difluorophenyl)-3-hydroxy-4-(1-(4-methylpentyl)cyclopropylamino)butan-2-yl)acetamide]",1.1
2,"CC(=O)NC(Cc1cc(F)cc(F)c1)C(O)CNC1(CCC(C)C)C2CCCC21 (stereo not drawn) [Example 3.1, N-(4-(6-isopentylbicyclo[3.1.0]hexan-6-ylamino)-1-(3,5-difluorophenyl)-3-hydroxybutan-2-yl)acetamide]",> 3.7 and > 3.2

# Target: T1, P-gp (Mus musculus, UniProt P21447)
# T1 construct: FVB wild-type littermates, which expresses P-gp at their blood-brain barrier (BBB); from tissue; host or cells: blood-brain barrier / brain of FVB wild-type mice, compared with mdr1 a/b (-/-) mice, in vivo
# Experiment: In vivo P-gp liability assessment in mdr1 a/b (-/-) and wild type FVB mouse
# Details: mdr1 a/b (-/-) vs FVB wild-type mice, 2.5 mg/Kg IV, 5 min post administration, ratio of Cb/Cp
# Procedure: Use of mdr1 (−/−) mouse and its FVB wild-type littermates, which expresses P-gp at their blood-brain barrier (BBB), can distinguish between a test compound of high P-gp liability from one with a more desirable low P-gp liability.
# Test compounds are administered to both the mdr1 a/b (−/−) and the FVB wild-type mice (N=4/strain) intravenously at 2.5 mg/Kg through the tail vein. Plasma and brains are harvested at 5 min post administration. Test compound is extracted from tissue in parallel with calibration curves prepared from age-matched control tissues, then quantitated by LC/MS/MS. The ratio of brain concentration (Cb) to plasma concentration (Cp) is used as a measure of brain penetration according to the following formula: Brain Penetration (P)=Cb/Cp Therefore, a measure of brain penetration in the mdr1 (−/−) mouse relative to that of the wild-type animal represents an assessment of in vivo P-gp efflux, which is analogous to that determine in vitro with MDR1-MDCK cells. Calculations are made according to the following formula: Pmdr1/PFVB=In vivo Efflux
# T1 sequence (P21447 whole entry): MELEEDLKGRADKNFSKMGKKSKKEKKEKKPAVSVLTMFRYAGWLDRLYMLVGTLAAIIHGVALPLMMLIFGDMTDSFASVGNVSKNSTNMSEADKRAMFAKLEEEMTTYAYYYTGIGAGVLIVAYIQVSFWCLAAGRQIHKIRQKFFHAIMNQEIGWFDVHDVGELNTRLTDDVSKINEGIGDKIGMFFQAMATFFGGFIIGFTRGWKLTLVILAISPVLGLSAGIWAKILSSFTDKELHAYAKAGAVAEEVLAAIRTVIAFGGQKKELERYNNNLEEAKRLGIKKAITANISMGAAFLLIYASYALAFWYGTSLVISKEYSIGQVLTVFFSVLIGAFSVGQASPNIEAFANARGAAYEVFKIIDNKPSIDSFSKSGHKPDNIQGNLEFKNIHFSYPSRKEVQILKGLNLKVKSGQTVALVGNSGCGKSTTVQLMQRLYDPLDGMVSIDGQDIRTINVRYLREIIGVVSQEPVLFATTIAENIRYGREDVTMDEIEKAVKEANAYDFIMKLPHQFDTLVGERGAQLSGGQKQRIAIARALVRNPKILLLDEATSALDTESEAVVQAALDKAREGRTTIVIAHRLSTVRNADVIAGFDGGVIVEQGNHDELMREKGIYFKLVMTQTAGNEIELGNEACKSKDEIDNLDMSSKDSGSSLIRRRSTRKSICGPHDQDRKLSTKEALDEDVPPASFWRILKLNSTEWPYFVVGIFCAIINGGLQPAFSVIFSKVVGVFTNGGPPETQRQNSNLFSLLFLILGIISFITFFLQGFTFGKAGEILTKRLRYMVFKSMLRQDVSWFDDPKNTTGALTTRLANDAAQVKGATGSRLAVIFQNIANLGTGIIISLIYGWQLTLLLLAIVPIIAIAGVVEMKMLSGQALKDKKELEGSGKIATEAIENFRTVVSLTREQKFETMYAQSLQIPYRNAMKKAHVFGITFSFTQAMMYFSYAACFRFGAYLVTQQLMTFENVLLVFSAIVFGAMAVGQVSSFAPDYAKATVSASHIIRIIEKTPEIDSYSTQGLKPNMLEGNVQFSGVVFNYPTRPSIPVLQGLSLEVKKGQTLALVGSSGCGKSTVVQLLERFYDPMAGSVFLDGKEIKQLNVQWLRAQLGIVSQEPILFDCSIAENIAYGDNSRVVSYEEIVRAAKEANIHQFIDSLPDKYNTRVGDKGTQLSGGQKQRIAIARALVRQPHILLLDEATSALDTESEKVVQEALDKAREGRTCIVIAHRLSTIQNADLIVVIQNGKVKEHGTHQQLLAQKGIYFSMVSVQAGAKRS
row,Structure (SMILES),in vivo P-gp efflux (Pmdr1/PFVB)
1,CNCC[C@@H](Oc1ccccc1C)c1ccccc1 [atomoxetine],1.17
